Reference: US20090282496A1, “Androgen Receptor Related Methods for Treating Bladder Cancer” (University of Rochester Medical Center, priority 2008, published 2009)

Columns and labels:
[1] = test system: BBN-induced bladder cancer; conditions: rats; castration had a much stronger effect; cited from earlier work
[2] = test system: BBN-induced bladder tumors; conditions: mouse, in vivo
Procedure: Animal care was provided in accordance with institutional guidelines. Five to six weeks old ARKO mice (male: n=48; female: n=24) and their wild-type littermates (male: n=48; female: n=24) were supplied ad libitum with tap water containing 0.05% BBN (TCI America) in opaque bottles for 12 weeks, and thereafter with tap water without BBN. To estimate BBN intake, the drinking water was prepared fresh twice a week, and consumption was recorded. […] Before starting BBN treatment, wild-type male mice received surgical castration (n=24) or sham surgery (n=24) at 5 weeks of age. […] Every 90 days, these pellets were replaced. At 20 (n=4 in each group), 30 (n=8 in each group), or 40 (n=12 in each group) weeks of age, the mice were killed by administration of pentobarbital followed by rapid cervical dislocation. Urinary tract specimens were harvested. These specimens were preserved in phosphate-buffered 10% formalin, embedded in paraffin, sectioned, stained with hematoxylin and eosin, and examined microscopically to identify carcinoma or other pathological changes. Paraffin-embedded sections were also used for immunohistochemical analysis. Part of each specimen was rapidly frozen in liquid nitrogen and stored at −80° C. for subsequent RNA analysis.
Sections (5-7 μm thick) from paraffin-embedded mouse urinary tract tissue and xenograft tumors (see below) were deparaffinized in xylene and rehydrated in a graded ethanol series. Sections were then incubated in 3% hydrogen peroxide to block endogenous peroxidase, with a protein blocking solution containing preimmune rabbit serum, and finally with a 1:500 dilution of primary antibody (rabbit polyclonal anti-proliferating cell nuclear antigen (PCNA) (Santa Cruz). Samples were incubated with peroxidase-conjugated anti-rabbit IgG. The slides were rinsed with PBS, incubated with diaminobenzidine, and finally counterstained with hematoxylin. The TUNEL assay was performed on additional rehydrated sections from paraffin-embedded mouse urinary tract tissue and xenograft tumor using the Fluorescein-FragEL DNA Fragmentation Detection kit (Calbiochem), according to the manufacturer's instructions, followed by counterstaining for DNA with DAPI. The percentage of apoptotic cells was determined by fluorescence microscopy. The percentage of PCNA- and TUNEL-positive cells in 1000 cells counted on each specimen were used to determine the amount of cell proliferation and apoptotic indices, respectively.

[3] = test system: BBN-induced bladder tumors; conditions: wild-type mice, drinking water with BBN at 0.01-0.05% for 10-20 weeks; previous studies; cited from earlier work
AR = target: T1, AR (Homo sapiens, UniProt P10275); conditions: TCC-SUP and UMUC3 cells, MMTV-Luc, 24 h
T1 sequence (P10275 1-920): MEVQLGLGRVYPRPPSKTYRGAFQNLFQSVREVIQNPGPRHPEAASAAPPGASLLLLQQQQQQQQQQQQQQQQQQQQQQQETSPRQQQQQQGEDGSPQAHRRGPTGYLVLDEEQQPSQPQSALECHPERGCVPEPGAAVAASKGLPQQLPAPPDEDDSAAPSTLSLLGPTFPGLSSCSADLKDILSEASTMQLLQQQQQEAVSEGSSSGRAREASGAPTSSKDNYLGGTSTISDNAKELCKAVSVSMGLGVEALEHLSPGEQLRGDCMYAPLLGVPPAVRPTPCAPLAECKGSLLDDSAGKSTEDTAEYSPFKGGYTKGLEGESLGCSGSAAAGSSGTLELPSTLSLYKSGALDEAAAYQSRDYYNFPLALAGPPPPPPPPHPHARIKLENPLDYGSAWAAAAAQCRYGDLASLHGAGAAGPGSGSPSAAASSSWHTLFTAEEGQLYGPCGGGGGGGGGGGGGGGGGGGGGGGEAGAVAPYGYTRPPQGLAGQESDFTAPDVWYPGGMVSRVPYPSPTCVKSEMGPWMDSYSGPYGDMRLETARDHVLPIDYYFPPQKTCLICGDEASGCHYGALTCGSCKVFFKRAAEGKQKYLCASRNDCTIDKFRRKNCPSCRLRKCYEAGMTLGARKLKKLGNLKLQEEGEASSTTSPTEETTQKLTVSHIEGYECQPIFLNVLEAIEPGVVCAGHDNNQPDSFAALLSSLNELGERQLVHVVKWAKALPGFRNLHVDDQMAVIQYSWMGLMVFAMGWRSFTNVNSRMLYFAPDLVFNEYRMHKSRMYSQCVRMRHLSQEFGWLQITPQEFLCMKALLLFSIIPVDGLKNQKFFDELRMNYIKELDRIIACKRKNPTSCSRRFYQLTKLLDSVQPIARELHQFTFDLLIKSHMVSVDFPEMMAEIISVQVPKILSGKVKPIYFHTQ
Procedure: Cell transfections and luciferase assays were performed as previously described (Miyamoto et al., Int. J. Cancer, 117:866-72 (2005) and Miyamoto et al., Proc. Natl. Acad. Sci. USA, 100:4440-4 (2003)). Briefly, bladder cancer cells at a density of 50-60% confluence in 12-well tissue culture plates were transfected with 1.5 μg of plasmid DNA using SuperFect transfection reagent (Qiagen) according to the manufacturer's instructions. […] Cells were harvested, lysed, and assayed for luciferase activity. A Dual-Luciferase Reporter Assay kit (Promega) and luminometer (TD-20/20, Turner BioSystems) were used to determine the level of luciferase activity in the cell extracts.

TCC-SUP cells = assay: Cell proliferation assay (MTT), TCC-SUP; format: cell-based, human; conditions: 6 days
UMUC3 cells = assay: Cell proliferation assay (MTT), UMUC3; format: cell-based, human; conditions: 6 days
[4] = test system: AR-negative bladder cancer cell lines (5637); assay: Cell proliferation assay (MTT), AR-negative bladder cancer cell lines; format: cell-based, human; conditions: AR-negative 5637 subline that expresses AR-siRNA, 6 days

For `CC(C)(C)NC(=O)[C@H]1CC[C@H]2[C@@H]3CC[C@H]4NC(=O)C=C[C@]4(C)[C@H]3CC[C@]12C` [finasteride, Finasteride], the “development of BBN-induced bladder cancer” value [1] is listed as “only slightly suppressed”.

With `CCCCN(CCCCO)N=O` [BBN, N-butyl-N-(4-hydroxybutyl)nitrosamine] the “hyperplasia in the bladder, incidence” value [2] was 17%, the invasive carcinoma incidence [2] was 50% and the “preneoplastic bladder lesions incidence” value [2] was 50-67%. The “preneoplastic lesions (hyperplasias or papillomas) incidence” value [2] was 75% and the “frequency of bladder carcinomas by 40 weeks” value [3] was 30-100%.

In the case of `CC(C)(O)C(=O)Nc1ccc([N+](=O)[O-])c(C(F)(F)F)c1` [HF, hydroxyflutamide], the “effect on DHT-induction of luciferase” value (AR; 5 μM HF + 1 nM DHT) is reported as “clearly inhibited”, the “agonist activity alone (luciferase)” value (AR; 5 μM HF alone) is reported as “only marginal agonist activity” and the effect on growth (TCC-SUP cells; TCC-SUP subline that expresses AR-siRNA) is reported as “did not affect the growth”. For the same compound, the “reduction of the DHT effect on cell growth” value (TCC-SUP cells; TCC-SUP, 5 μM HF + 1 nM DHT, range given for both lines) was 67-75%, the “effect on cell proliferation” value (TCC-SUP cells; control (scrambled siRNA) TCC-SUP subline, 1 nM DHT and/or 5 μM HF) was “antagonized the DHT effect” and the “reduction of the DHT effect on cell growth” value (UMUC3 cells; UMUC3, 5 μM HF + 1 nM DHT, range given for both lines) was 67-75%. The effect on growth (UMUC3 cells; UMUC3 subline that expresses AR-siRNA) was “did not affect the growth”, the “effect on cell proliferation” value (UMUC3 cells; control (scrambled siRNA) UMUC3 subline, 1 nM DHT and/or 5 μM HF) was “antagonized the DHT effect” and the effect on growth [4] was “did not affect the growth”.
